Data set [1] deals with T1, Prostaglandin G/H synthase 1 (Homo sapiens, UniProt P23219). The experiment in a line: Inhibition of human platelets COX1 assessed as PGE2 production using arachidonic acid as substrate at 10 uM preincubated for 15 mins measured after 15 mins by EIA.
Data set [2] addresses T2, hERG (KCNH2) (Homo sapiens, UniProt Q12809). The experiment in a line: Inhibition of human ERG expressed in HEK293 cells assessed as inhibition of tail current at holding potential of -70 mV at 1 uM after 10 mins by whole-cell patch clamp method. The format is cell-based. The note with it: HEK293 cells that express hERG. (In general: In patch-clamp work, channel activity is measured electrically.)

Data set [3] deals with T2, hERG (KCNH2). The experiment in a line: Inhibition of human ERG expressed in HEK293 cells assessed as inhibition of tail current at holding potential of -70 mV at 3.16 uM after 10 mins by whole-cell patch clamp method. In kind it is cell-based. The note with it: HEK293 cells that express hERG.
Data set [4] concerns the target T2, hERG (KCNH2). The experiment in a line: Inhibition of human ERG expressed in HEK293 cells assessed as inhibition of tail current at holding potential of -70 mV at 10 uM after 10 mins by whole-cell patch clamp method. In kind it is cell-based. To be noted: HEK293 cells that express hERG.
For data set [5], the target named is T2, hERG (KCNH2). The experiment in a line: Inhibition of human ERG expressed in HEK293 cells assessed as inhibition of tail current at holding potential of -70 mV at 31.6 uM after 10 mins by whole-cell patch clamp method. The format is cell-based. To be noted: HEK293 cells that express hERG.
In data set [6] the target is T2, hERG (KCNH2). The experiment in a line: Inhibition of human ERG expressed in HEK293 cells assessed as inhibition of tail current at holding potential of -70 mV at 100 uM after 10 mins by whole-cell patch clamp method. The format is cell-based. To be noted: HEK293 cells that express hERG.
The target of data set [7] is T2, hERG (KCNH2). The experiment in a line: Inhibition of human ERG expressed in HEK293 cells assessed as inhibition of tail current at holding potential of -70 mV at 1 uM after 10 mins by whole-cell patch clamp method relative to control. In kind it is cell-based. The note with it: HEK293 cells that express hERG.
The target in data set [8] is T1, Prostaglandin G/H synthase 1. The experiment in a line: Inhibition of human platelets COX1 assessed as PGE2 production using arachidonic acid as substrate preincubated for 15 mins measured after 15 mins by EIA.
Data set [9] has as its target T3, Prostaglandin G/H synthase 2 (Homo sapiens, UniProt P35354).
T3 sequence (P35354 whole entry): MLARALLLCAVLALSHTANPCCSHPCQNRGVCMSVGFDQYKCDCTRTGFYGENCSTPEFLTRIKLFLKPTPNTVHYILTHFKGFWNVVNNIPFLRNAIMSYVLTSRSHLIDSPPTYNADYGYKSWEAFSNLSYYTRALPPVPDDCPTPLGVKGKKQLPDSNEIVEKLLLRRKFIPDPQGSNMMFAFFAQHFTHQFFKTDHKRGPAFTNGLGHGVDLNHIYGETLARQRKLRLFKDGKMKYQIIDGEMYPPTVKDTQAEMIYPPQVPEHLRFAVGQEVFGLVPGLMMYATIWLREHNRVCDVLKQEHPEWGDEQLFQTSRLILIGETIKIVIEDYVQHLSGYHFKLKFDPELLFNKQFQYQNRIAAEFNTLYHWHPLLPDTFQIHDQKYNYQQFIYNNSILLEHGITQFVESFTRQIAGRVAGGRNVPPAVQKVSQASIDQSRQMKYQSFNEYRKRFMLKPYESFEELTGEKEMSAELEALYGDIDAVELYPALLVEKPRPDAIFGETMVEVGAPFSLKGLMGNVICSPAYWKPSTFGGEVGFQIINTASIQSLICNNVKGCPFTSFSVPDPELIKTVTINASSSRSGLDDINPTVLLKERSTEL
The experiment in a line: Inhibition of human recombinant COX2 expressed in Sf21 cells assessed as PGE2 production using arachidonic acid as substrate preincubated for 15 mins measured after 5 mins by EIA.

Data set [10] deals with T2, hERG (KCNH2). The experiment in a line: Inhibition of human ERG expressed in HEK293 cells assessed as inhibition of tail current at holding potential of -70 mV at 3.16 uM after 10 mins by whole-cell patch clamp method relative to control. In kind it is cell-based. The note with it: HEK293 cells that express hERG.

In general, inhibition refers to the relative decrease from the control value, in per cent. By IC50 is commonly meant the concentration that gives 50% inhibition.

T2 sequence (Q12809 whole entry): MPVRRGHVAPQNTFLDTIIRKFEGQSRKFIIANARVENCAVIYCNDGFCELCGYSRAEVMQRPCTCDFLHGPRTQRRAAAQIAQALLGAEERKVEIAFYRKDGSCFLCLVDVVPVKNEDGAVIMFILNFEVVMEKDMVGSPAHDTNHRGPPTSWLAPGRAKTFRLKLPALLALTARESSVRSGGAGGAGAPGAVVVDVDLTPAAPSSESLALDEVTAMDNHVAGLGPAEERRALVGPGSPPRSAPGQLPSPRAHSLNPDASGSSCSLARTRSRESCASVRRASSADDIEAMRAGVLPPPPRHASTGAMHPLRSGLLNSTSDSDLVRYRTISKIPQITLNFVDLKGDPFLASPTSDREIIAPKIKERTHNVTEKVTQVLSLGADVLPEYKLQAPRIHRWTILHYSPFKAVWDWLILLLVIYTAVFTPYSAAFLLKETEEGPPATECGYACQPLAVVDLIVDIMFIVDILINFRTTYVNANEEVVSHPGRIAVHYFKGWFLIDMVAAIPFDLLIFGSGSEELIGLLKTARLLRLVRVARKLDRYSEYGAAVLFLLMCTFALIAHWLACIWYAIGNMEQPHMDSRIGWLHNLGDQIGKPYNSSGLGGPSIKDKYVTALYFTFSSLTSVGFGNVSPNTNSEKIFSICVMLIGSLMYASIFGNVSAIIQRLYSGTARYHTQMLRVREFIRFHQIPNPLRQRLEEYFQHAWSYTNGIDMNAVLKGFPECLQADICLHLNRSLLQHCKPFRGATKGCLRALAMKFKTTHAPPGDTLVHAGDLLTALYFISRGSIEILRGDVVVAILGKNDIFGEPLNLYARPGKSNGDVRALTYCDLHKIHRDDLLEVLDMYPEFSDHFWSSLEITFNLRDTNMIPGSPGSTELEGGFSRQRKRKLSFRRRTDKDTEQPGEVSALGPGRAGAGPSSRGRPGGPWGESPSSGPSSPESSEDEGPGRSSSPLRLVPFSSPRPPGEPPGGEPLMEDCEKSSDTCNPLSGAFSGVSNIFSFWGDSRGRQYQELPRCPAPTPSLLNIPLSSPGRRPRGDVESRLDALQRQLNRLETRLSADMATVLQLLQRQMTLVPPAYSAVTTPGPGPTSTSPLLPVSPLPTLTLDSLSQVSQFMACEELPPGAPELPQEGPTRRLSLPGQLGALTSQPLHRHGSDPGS
T1 sequence (P23219 whole entry): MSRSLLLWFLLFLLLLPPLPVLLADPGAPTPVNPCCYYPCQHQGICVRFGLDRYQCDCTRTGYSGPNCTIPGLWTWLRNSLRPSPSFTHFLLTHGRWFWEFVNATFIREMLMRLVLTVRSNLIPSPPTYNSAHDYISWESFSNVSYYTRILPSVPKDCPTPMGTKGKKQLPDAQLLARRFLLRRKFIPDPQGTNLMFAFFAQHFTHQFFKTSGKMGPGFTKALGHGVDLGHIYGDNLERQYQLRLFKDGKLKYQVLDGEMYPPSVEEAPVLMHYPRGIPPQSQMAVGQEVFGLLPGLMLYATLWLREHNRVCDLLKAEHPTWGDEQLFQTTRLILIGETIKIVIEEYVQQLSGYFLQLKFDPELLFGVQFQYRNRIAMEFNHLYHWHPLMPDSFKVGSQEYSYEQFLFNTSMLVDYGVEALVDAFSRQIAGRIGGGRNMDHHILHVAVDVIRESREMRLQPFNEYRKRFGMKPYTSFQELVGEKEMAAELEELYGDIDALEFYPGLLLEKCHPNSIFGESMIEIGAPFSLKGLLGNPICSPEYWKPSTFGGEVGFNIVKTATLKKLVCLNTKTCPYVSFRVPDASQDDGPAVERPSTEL

As for `C[S+](=N)([O-])c1ccc(C2=C(c3ccccc3)C(=O)OC2)cc1` (stereo unspecified), the inhibition in data set [1] is 26%. In addition, the inhibition at 10 min, 1 µM on hERG (KCNH2) [2] is 1.7%; at hERG (KCNH2) [7] it was -0.1%. Also, on hERG (KCNH2) [3], the inhibition at 10 min, 3.16 µM amounted to 7%. Besides, at hERG (KCNH2) [4], the inhibition at 10 min, 10 µM was determined as 20%. The inhibition at 10 min, 31.6 µM at hERG (KCNH2) [5] was 27.6%. Further, the inhibition at 10 min, 100 µM on hERG (KCNH2) [6] was 29.6%.
With `CN=[S+](C)([O-])c1ccc(C2=C(c3ccccc3)C(=O)OC2)cc1` (stereo unspecified), the inhibition in data set [1] was 10%. Moreover, the results for the IC50 in data set [8] and in data set [9] were 42.4 nM and 156 nM, respectively.
Regarding `CS(=O)(=O)c1ccc(C2=C(c3ccccc3)C(=O)OC2)cc1` [ROFECOXIB], the inhibition at 10 min, 1 µM on hERG (KCNH2) [2] amounted to 6.8%. In addition, the results for the inhibition at 10 min, 3.16 µM at hERG (KCNH2) [3] and at hERG (KCNH2) [10] were 8.3% and -10.2%, respectively. In addition, the inhibition at 10 min, 10 µM at hERG (KCNH2) [4] is 10.4%. Moreover, the inhibition at 10 min, 31.6 µM on hERG (KCNH2) [5] came out at 19.1%. In addition, the inhibition at 10 min, 100 µM at hERG (KCNH2) [6] stood at 27.6%.

These data come from ChEMBL document CHEMBL1811901, “Bioactive sulfoximines: syntheses and properties of Vioxx analogs” (Bioorg Med Chem Lett, 2011).
